Consider three compounds from paper PMC3137686 (Synapse (New York, N.Y.), 2011).

The test system of data set [1] is brain serotonin (5-HT) neurons. Description: Regional brain 5-HT and 5-HIAA concentrations one week after drug treatment. Type of data set: in vivo, rat. The settings on record: one week after single oral dose of 20 mg/kg MDMA.
In data set [2] the test system is brain serotonin (5-HT) neurons. The settings on record: ref Paris and Cunningham 1992, Esteban et al. 2001, Escobedo et al. 2005; cited from earlier work.
For data set [3], the system named is brain 5-HT axonal markers. The settings on record: intrastriatal administration; ref Jones et al. 2005; cited from earlier work.
A further data set can be described thus: Rectal. Type of data set: in vivo, rat.
In another data set the test system is cytochrome P450 (CYP450). The settings on record: ref Broly et al. 1990; Ramamoorthy et al. 2002; Heydari et al. 2004; cited from earlier work.

SMILES strings stand for the structures. “Also recorded” adds a separate entry of the source.

Consider `CNC(C)Cc1ccc2c(c1)OCO2` (stereo not shown) [MDMA, 3,4-Methylenedioxymethamphetamine], for which the “5-HT and 5-HIAA concentrations across brain regions after MDMA” value in data set [1] is on record as “lasting effects”. Further, the “toxic effects after central administration” value in data set [2] is given as “does not produce toxic effects”.
As for `CNC(C)Cc1cc(O)c(O)c(SC[C@H](NC(C)=O)C(=O)O)c1` (stereo partly shown) [5-NAC-HHMA, 5-N-acetylcystein-S-yl-HHMA], in data set [3], the “lasting depletions of indoles in the rat brain” value was “produces lasting depletions of indoles”.
For `COc1ccc2c(c1)[C@]13CCCC[C@@H]1[C@H](C2)N(C)CC3` [DXM, dextromethorphan], the “effect of DXM on body (core) temperature” value in the data set “Rectal” (DXM 30 mg/kg i.p. x3, alone or in combination with MDMA 20 mg/kg p.o.) is given as “did not significantly alter; also recorded: no significant effect”. Also, the “body temperature after combination of MDMA and DXM” value in “Rectal” (MDMA 20 mg/kg p.o. + DXM 30 mg/kg i.p. x3) was “longer lasting decrease in temperature, which was followed by an increase in core temperature”. Also, the “peak temperatures, MDMA/DXM group vs MDMA/Saline group” value in “Rectal” (MDMA 20 mg/kg p.o. + DXM 30 mg/kg i.p. x3, difference did not achieve statistical significance) was “lower”. In addition, the “inhibition of CYP450-mediated metabolism of MDMA to HHMA” value with cytochrome P450 (CYP450) is on record as “potent competitive inhibitor”.
